Patent US11485737B2, “Diaryl substituted 5,5-fused ring compounds as C5aR inhibitors” (CHEMOCENTRYX, INC., priority 2017, dated 2022)

target: T1, C5aR (Homo sapiens, UniProt P21730); assay: Chemotaxis assay using U937 cells (C5a-induced migration); type: cell-based; settings: chemotaxis (migration) of U937 cells towards C5a; read-out: Mig IC50
T1 construct: U937 cells are a monocytic cell line which express C5aR; host or cells: U937 cells (cAMP-treated overnight)
T1 sequence (P21730 1-350): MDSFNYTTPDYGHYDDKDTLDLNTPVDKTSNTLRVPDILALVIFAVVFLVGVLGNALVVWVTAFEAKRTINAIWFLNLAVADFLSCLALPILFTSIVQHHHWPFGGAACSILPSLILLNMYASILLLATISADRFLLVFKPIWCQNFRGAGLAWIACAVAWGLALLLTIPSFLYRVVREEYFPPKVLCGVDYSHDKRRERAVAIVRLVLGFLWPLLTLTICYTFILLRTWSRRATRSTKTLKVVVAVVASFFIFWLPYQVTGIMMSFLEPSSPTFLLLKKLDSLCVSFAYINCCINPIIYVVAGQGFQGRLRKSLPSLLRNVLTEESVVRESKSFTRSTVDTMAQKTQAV
Description: U937 cells are a monocytic cell line which express C5aR, and are available from ATCC (VA). These cells were cultured as a suspension in RPMI-1640 medium supplemented with 2 mM L-glutamine, 1.5 g/L sodium bicarbonate, 4.5 g/L glucose, 10 mM HEPES, 1 mM sodium pyruvate, and 10% FBS. Cells were grown under 5% CO2/95% air, 100% humidity at 37° C. and subcultured twice weekly at 1:6 (cells were cultured at a density range of 1×10^5 to 2×10^6 cells/mL) and harvested at 1×10^6 cells/mL. Prior to assay, cells are treated overnight with 0.5 mM of cyclic AMP (Sigma, OH) and washed once prior to use. cAMP treated U937 cells can be used in C5aR ligand binding and functional assays.
Optionally, compounds may be further assayed for their ability to inhibit chemotaxis in cells. Chemotaxis assays are performed using 5 μm pore polycarbonate, polyvinylpyrrolidone-coated filters in 96-well chemotaxis chambers (Neuroprobe; Gaithersburg, Md.) using chemotaxis buffer (Hank's balanced salt solution (HBSS) and 1% FBS). C5aR ligands (i.e., C5a, R&D Systems; Minneapolis, Minn.) are use to evaluate compound mediated inhibition of C5aR mediated migration. Other chemokines (i.e., SDF-1α; R&D Systems; Minneapolis, Minn.) are used as specificity controls. The lower chamber is loaded with 29 μl of chemokine (i.e., 0.03 nM C5a) and varying amounts of compound; the top chamber contains 100,000 U937 or neutrophil cells in 20 μl. The chambers are incubated 1.5 hours at 37° C., and the number of cells in the lower chamber quantified either by direct cell counts in five high powered fields per well or by the CyQuant assay (Molecular Probes), a fluorescent dye method that measures nucleic acid content and microscopic observation.
The compounds in Table 1, below, were prepared using the methods described above. Characterization data is provided for each compound listed. Activity is provided as follows for the chemotaxis assay using U937 cells as described herein (Example 7): +, 500 nM<IC50; ++, 50 nM<IC50<500 nM; +++, 5 nM<IC50<50 nM; and ++++, IC50<5 nM.

Compound	IC50 [µM]
Cc1ccc(C(C)(C)C)cc1N1Cc2c(nn(-c3c(C)cccc3C)c2-c2ccc(NC(N)=O)cc2)C1=O [Compound 1.021]	> 0.5
COc1cccc(C)c1-n1nc2c(c1-c1ccc(NC(N)=O)cc1)CN(C(=O)NC(C)(C)C)C2 [Compound 1.032]	> 0.5
Cc1ccc(C(C)(C)C)cc1N1Cc2nn(-c3c(C)cccc3OCC(C)C)c(-c3ccc(C(N)=O)cc3)c2C1 [Compound 1.041]	< 0.005
Cc1cc(C(N)=O)ccc1-c1c2c(nn1-c1c(C)cccc1C)CN(c1cc(C(C)(C)C)ccc1C)C2 [Compound 1.040]	0.05 to 0.5
Cc1cccc(C)c1-n1nc2c(c1-c1ccc(NC(N)=O)cc1)CN(c1ccccc1C(C)C)C2 [Compound 1.045]	0.05 to 0.5
CCc1cccc(CC)c1-n1nc2c(c1-c1ccc(C(N)=O)c(F)c1)CN(Cc1ccc(C(F)(F)F)cc1C(F)(F)F)C2(C)C [Compound 1.005]	> 0.5
Cc1ccc(C(C)(C)C)cc1N1Cc2nn(-c3c(C)cccc3C)c(-c3ccc(C(N)=O)cc3)c2C1 [Compound 1.047]	< 0.005
CCc1cccc(CC)c1-n1nc2c(c1-c1cc(F)c(NC(N)=O)cc1C)CN(Cc1ccccc1C(F)(F)F)C2(C)C [Compound 1.009]	< 0.005
CCc1cccc(CC)c1-n1nc2c(c1-c1cc(F)c(NC(N)=O)cc1F)CN(Cc1ccccc1C(F)(F)F)C2(C)C [Compound 1.014]	< 0.005
Cc1cccc(C)c1-n1nc2c(c1-c1ccc(NC(N)=O)cc1)CN(CC(C)(C)C)C2(C)C [Compound 1.019]	0.05 to 0.5
CCCOc1cccc(C)c1-n1nc2c(c1-c1ccc(N)cc1)CN(c1cc(C(C)(C)C)ccc1C)C2 [Compound 1.053]	0.005 to 0.05
CCc1cccc(CC)c1-n1nc2c(c1-c1cc(F)c(NC(N)=O)cc1F)CN(C(=O)C(C)CC)C2(C)C (centres unmarked) [Compound 1.013]	< 0.005
Cc1ccc(C(C)(C)C)cc1N1Cc2nn(-c3c(C)cccc3C)c(-c3ccc(C(=O)NC4CCCC4)cc3)c2C1 [Compound 1.042]	> 0.5
Cc1cccc(C)c1-n1nc2c(c1-c1ccc(C(N)=O)cc1)CN(C(=O)c1ccccc1)C2 [Compound 1.037]	> 0.5
CCc1cccc(CC)c1-n1nc2c(c1-c1cc(Cl)c(NC(N)=O)cc1F)CN(Cc1ccc(C(F)(F)F)cc1C(F)(F)F)C2(C)C [Compound 1.001, 1-(4-(5-(2,4-bis(trifluoromethyl)benzyl)-2-(2,6-diethylphenyl)-6,6-dimethyl-2,4,5,6-tetrahydropyrrolo[3,4-c]pyrazol-3-yl)-2-chloro-5-fluorophenyl)urea]	< 0.005
CCc1cccc(CC)c1-n1nc2c(c1-c1cc(F)c(NC(N)=O)cc1C)CN(CC1(C)COC1)C2(C)C [Compound 1.008]	0.005 to 0.05
Cc1ccc(C(C)(C)C)cc1N1Cc2nn(-c3c(C)cccc3C)c(-c3ccc(N)cc3)c2C1 [Compound 1.051]	< 0.005
Cc1ccc(C(C)(C)C)cc1N1Cc2nn(-c3c(C)cccc3C)c(-c3ccc(NC(N)=O)cc3)c2C1 [Compound 1.049]	0.05 to 0.5
COc1cccc(C)c1-n1nc2c(c1-c1ccc(NC(N)=O)cc1)CN(c1ccccc1C(C)C)C2 [Compound 1.044]	0.05 to 0.5
CNc1ccc(-c2c3c(nn2-c2c(C)cccc2C)CN(c2cc(C(C)(C)C)ccc2C)C3)cc1 [Compound 1.050]	> 0.5
Cc1cccc(C)c1-n1nc2c(c1-c1ccc(C(N)=O)cc1)CN(C(=O)NC(C)(C)C)C2 [Compound 1.033]	> 0.5
Cc1ccc(N2Cc3nn(-c4c(C)cccc4C)c(-c4ccc(C(N)=O)cc4)c3C2)cc1C(F)(F)F [Compound 1.039]	> 0.5
Cc1cccc(C)c1-n1nc2c(c1-c1ccc(C(N)=O)cc1)CN(c1cccc(C(C)(C)C)n1)C2 [Compound 1.027]	> 0.5
CCOc1cccc(C)c1-n1nc2c(c1-c1ccc(N)cc1)CN(c1cc(C(C)(C)C)ccc1C)C2 [Compound 1.054]	0.005 to 0.05
CCc1cccc(CC)c1-n1nc2c(c1-c1cc(F)c(NC(N)=O)cc1F)CN(C(=O)C(C)C)C2(C)C [Compound 1.016, 1-(4-(2-(2,6-diethylphenyl)-5-isobutyryl-6,6-dimethyl-2,4,5,6-tetrahydropyrrolo[3,4-c]pyrazol-3-yl)-2,5-difluorophenyl)urea]	0.005 to 0.05

Compound	IC50 [µM]
Cc1ccc(C(C)(C)C)cc1N1Cc2nn(-c3c(C)cccc3C)c(-c3ccc(C(=O)O)cc3)c2C1 [Compound 1.043]	> 0.5
Cc1cccc(C)c1-n1nc2c(c1-c1ccc(N)cc1)CN(c1ccccc1C(C)C)C2 [Compound 1.046]	0.05 to 0.5
Cc1cccc(C)c1-n1nc2c(c1-c1ccc(C(N)=O)cc1)CN(C(=O)OC(C)(C)C)C2 [Compound 1.038]	> 0.5
COc1cccc(C)c1-n1nc2c(c1-c1ccc(NC(N)=O)cc1)CN(c1cc(C(C)(C)C)ccc1C)C2 [Compound 1.052]	> 0.5
CCc1cccc(CC)c1-n1nc2c(c1-c1cc(F)c(NC(N)=O)cc1F)CN(Cc1ccc(C(F)(F)F)cc1C(F)(F)F)C2(C)C [Compound 1.018]	< 0.005
CCc1cccc(CC)c1-n1nc2c(c1-c1cc(OC)c(NC(N)=O)cc1F)CN(Cc1ccc(C(F)(F)F)cc1C(F)(F)F)C2(C)C [Compound 1.002]	< 0.005
Cc1cccc(C)c1-n1nc2c(c1-c1ccc(NC(N)=O)cc1)CN(CC(C)(C)C)C2 [Compound 1.022]	0.05 to 0.5
Cc1cccc(C)c1-n1nc2c(c1-c1ccc(C(N)=O)cc1)CN(c1ccc(F)cc1C(C)C)C2 [Compound 1.034]	0.05 to 0.5
Cc1cc(C(N)=O)ccc1-c1c2c(nn1-c1c(C)cccc1C)C(=O)N(c1cc(C(C)(C)C)ccc1C)C2 [Compound 1.023]	0.05 to 0.5
Cc1ccc(C(C)(C)C)cc1N1Cc2nn(-c3c(C)cccc3C)c(-c3ccc(C(C)(C)O)cc3)c2C1 [Compound 1.048]	0.05 to 0.5
CCc1cccc(CC)c1-n1nc2c(c1-c1cc(F)c(NC(N)=O)cc1F)CN(C(=O)CC(C)C)C2(C)C [Compound 1.012]	< 0.005
COc1cccc(C)c1-n1nc2c(c1-c1ccc(N)cc1)CN(c1cc(C(C)(C)C)ccc1C)C2 [Compound 1.055]	0.005 to 0.05
CCc1cccc(CC)c1-n1nc2c(c1-c1cc(F)c(NC(N)=O)cc1F)CN(CC1CCOCC1)C2(C)C [Compound 1.015]	< 0.005
Cc1cccc(C)c1-n1nc2c(c1-c1cc(F)c(NC(N)=O)cc1F)CN(Cc1ccc(C(F)(F)F)cc1C(F)(F)F)C2(C)C [Compound 1.007]	< 0.005
Cc1ccc(C(C)(C)C)cc1N1Cc2nn(-c3c(C)cccc3C)c(-c3ccc(C(N)=O)cc3)c2C1=O [Compound 1.031]	0.005 to 0.05
CCc1cccc(CC)c1-n1nc2c(c1-c1cc(F)c(NC(N)=O)cc1F)CN(Cc1cc(C(F)(F)F)ccc1C(F)(F)F)C2(C)C [Compound 1.017]	< 0.005
Cc1cc(-c2c3c(nn2-c2c(C)cccc2C)CN(c2cc(C(C)(C)C)ccc2C)C3=O)ccc1C(N)=O [Compound 1.025]	> 0.5
Cc1cccc(C)c1-n1nc2c(c1-c1ccc(C(N)=O)cc1)CN(c1cc(C(C)(C)C)ccn1)C2 [Compound 1.028]	> 0.5
CCc1cccc(CC)c1-n1nc2c(c1-c1cc(F)c(NC(N)=O)cc1C)CN(Cc1ccc(C(F)(F)F)cc1C(F)(F)F)C2(C)C [Compound 1.010]	< 0.005
CCc1cccc(CC)c1-n1nc2c(c1-c1cc(C)c(NC(N)=O)cc1F)CN(Cc1ccc(C(F)(F)F)cc1C(F)(F)F)C2(C)C [Compound 1.003]	< 0.005
Cc1cc(F)c(C(C)C)cc1N1Cc2nn(-c3c(C)cccc3C)c(-c3ccc(C(N)=O)cc3)c2C1 [Compound 1.035, 4-(2-(2,6-dimethylphenyl)-5-(4-fluoro-5-isopropyl-2-methylphenyl)-2,4,5,6-tetrahydropyrrolo[3,4-c]pyrazol-3-yl)benzamide]	0.005 to 0.05
Cc1cccc(C)c1-n1nc2c(c1-c1cc(F)c(NC(N)=O)cc1F)CN(Cc1ccccc1C(F)(F)F)C2(C)C [Compound 1.006]	< 0.005
Cc1ccc(C(C)(C)C)cc1N1Cc2c(nn(-c3c(C)cccc3C)c2-c2ccc(C(N)=O)cc2)C1=O [Compound 1.030]	0.005 to 0.05
Cc1cc(-c2c3c(nn2-c2c(C)cccc2C)C(=O)N(c2cc(C(C)(C)C)ccc2C)C3)ccc1C(N)=O [Compound 1.024]	0.005 to 0.05
Cc1cccc(C)c1-n1nc2c(c1-c1ccc(C(N)=O)cc1)CN(c1ccc(C(F)(F)F)c(Cl)c1)C2=O [Compound 1.020]	> 0.5
